Experiments:
5HT2 serotonin receptor = molecular target: T1, 5HT2 serotonin receptor (Rattus norvegicus, UniProt P14842); test: 5HT2 receptor binding, [3H]ketanserin displacement; details: read-out: IC50 (inhibition of [3H]-ligand binding) (converted)
T1 construct: Cell membrane fractions, prepared from tissue homogenates or cells; from tissue
Procedure: (§1) Cell membrane fractions, prepared from tissue homogenates or cells, were incubated with a radioactive [^3 H]-labelled substance (described hereinafter as the [^3 H]-ligand) known to bind specifically to a particular receptor, thus labeling this receptor. The [^3 H]-ligand used for each receptor site is mentioned in Table 1, as are the references wherein the experimental conditions of these tests are described.
(§2) After the incubation, the labelled membranes were harvested on glass fibre filters and rinsed twice with 5 ml of a cold buffer solution to remove non-bound [^3 H]-ligands. Subsequently the glass fibre filters, with the harvested membranes, were placed in plastic mini-vials and 2.0 ml of Ultima Gold™ scintillation cocktail was added. Vials were vigorously shaken and kept at 4° C. for 24 h. Thereafter radioactivity was counted in a liquid scintillation spectrometer. Said radioactivity is proportional to the membrane labelling by the [^3 H]-ligand.
(§3) Specific membrane labelling by the [^3 H]-ligand was distinguished from the non-specific membrane labelling by selectively inhibiting the labelling of the receptor site by another substance (unlabelled) known to compete with the [^3 H]-ligand for binding to said receptor site. The remaining non-specific labelling was substracted from all assays concerning said receptor site.
(§4) During the incubation the test compounds were able to compete with the [^3 H]-ligand for binding with the receptor. Subsequently the membranes were harvested and the radioactivity was measured as described above.
(§5) A compound having a high binding affinity is capable of displacing the [^3 H]-ligand from binding to the receptor, and consequently the radioactivity of the harvested membranes will be diminished. […] The values presented in table 1 are IC50 -values, i.e. the molar concentrations at which the test compound was able to inhibit 50% of the [^3 H]-ligand-binding
(§6) In the table "5HT2, 5HT1A, 5HT1B, 5HT1D, 5HT1C, 5HT3 " all refer to different types of serotonin receptor sites; "α2 " refers to the α2 -adrenergic receptor site; "H1 " refers to the histamine-H1 receptor site; and "D2 " refers to the dopamine-D2 -receptor site.

5HT1A serotonin receptor = molecular target: T2, 5HT1A serotonin receptor (Homo sapiens, UniProt P08908); test: 5HT1A receptor binding, [3H]8OHDPAT displacement; details: read-out: IC50 (inhibition of [3H]-ligand binding) (converted)
T2 construct: expressed in transfected cells
T2 sequence (P08908 1-422): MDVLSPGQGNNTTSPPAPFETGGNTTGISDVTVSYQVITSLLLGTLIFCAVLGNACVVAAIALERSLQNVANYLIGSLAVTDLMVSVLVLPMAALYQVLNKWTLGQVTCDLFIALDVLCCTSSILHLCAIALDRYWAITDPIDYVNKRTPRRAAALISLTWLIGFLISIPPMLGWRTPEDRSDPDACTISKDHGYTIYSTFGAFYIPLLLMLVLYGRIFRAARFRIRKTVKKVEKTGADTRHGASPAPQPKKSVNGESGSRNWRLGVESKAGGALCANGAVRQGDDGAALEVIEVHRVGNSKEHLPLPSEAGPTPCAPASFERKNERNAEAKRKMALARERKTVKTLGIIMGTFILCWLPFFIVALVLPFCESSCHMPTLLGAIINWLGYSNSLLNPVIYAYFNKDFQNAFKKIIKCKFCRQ
Procedure: as §1, §2, §3, §4, §5, §6

5HT1B serotonin receptor = molecular target: T3, 5HT1B serotonin receptor (Rattus norvegicus, UniProt P28564); test: 5HT1B receptor binding, [3H]serotonin displacement; details: read-out: IC50 (inhibition of [3H]-ligand binding) (converted)
T3 construct: Cell membrane fractions, prepared from tissue homogenates or cells; from tissue
T3 sequence (P28564 whole entry): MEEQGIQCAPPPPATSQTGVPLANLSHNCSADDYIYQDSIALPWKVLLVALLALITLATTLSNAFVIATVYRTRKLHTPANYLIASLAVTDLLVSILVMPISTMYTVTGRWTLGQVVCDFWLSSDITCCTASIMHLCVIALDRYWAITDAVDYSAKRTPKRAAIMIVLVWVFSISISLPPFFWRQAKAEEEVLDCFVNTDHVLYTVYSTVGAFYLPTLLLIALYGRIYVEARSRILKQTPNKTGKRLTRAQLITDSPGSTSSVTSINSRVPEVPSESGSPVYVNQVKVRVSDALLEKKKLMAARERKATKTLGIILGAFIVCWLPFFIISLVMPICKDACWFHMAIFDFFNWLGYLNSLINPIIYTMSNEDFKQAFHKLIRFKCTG
Procedure: as §1, §2, §3, §4, §5, §6

5HT3 serotonin receptor = molecular target: T4, 5HT3 serotonin receptor (Mus musculus, UniProt P23979); test: 5HT3 receptor binding, [3H]GR65630 displacement; details: read-out: IC50 (inhibition of [3H]-ligand binding) (converted)
T4 construct: Cell membrane fractions, prepared from tissue homogenates or cells; endogenous in cells
T4 sequence (P23979 24-489): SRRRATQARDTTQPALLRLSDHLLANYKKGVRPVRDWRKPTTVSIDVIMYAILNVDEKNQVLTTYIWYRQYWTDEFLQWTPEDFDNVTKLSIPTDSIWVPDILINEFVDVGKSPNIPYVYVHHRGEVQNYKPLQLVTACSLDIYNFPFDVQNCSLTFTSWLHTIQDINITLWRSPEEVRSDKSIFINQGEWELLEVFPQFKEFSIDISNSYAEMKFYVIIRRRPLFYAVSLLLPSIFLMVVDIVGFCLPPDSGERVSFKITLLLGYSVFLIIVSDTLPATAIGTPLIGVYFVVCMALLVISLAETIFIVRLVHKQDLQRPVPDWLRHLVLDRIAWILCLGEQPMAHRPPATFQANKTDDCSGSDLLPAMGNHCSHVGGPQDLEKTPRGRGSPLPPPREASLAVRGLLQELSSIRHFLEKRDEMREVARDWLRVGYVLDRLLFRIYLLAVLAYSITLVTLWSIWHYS
Procedure: as §1, §2, §3, §4, §5, §6
(f) Hoyer & Neijt, Eur. J. Pharmacol., 143, 191, 1987;

histamine-H1 receptor = molecular target: T5, histamine-H1 receptor (Cavia porcellus, UniProt P31389); test: histamine-H1 receptor binding, [3H]pyrilamine displacement; details: read-out: IC50 (inhibition of [3H]-ligand binding) (converted)
T5 construct: Cell membrane fractions, prepared from tissue homogenates or cells; from tissue
T5 sequence (P31389 whole entry): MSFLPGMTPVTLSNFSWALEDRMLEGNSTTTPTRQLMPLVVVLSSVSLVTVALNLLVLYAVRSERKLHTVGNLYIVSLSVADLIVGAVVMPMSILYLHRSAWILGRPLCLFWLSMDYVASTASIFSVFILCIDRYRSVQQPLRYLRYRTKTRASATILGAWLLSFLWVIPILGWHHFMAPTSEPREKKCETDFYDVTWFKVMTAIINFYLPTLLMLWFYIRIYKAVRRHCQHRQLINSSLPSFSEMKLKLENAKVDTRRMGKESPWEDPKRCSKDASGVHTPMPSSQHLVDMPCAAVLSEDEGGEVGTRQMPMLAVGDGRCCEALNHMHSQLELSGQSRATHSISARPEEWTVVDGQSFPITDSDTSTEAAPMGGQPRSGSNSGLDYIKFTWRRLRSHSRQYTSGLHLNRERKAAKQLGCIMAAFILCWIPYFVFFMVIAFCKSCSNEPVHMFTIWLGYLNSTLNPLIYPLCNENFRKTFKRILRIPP
Procedure: as §1, §2, §3, §4, §5, §6
(h) Chang et al., Eur. J. Pharmacol., 48, 463-464, 1978; Laduron et al.,

dopamine-D2 receptor = molecular target: T6, dopamine-D2 receptor (Rattus norvegicus, UniProt P61169); test: dopamine-D2 receptor binding, [3H]haloperidol displacement; details: read-out: IC50 (inhibition of [3H]-ligand binding) (converted)
T6 construct: Cell membrane fractions, prepared from tissue homogenates or cells; from tissue
T6 sequence (P61169 whole entry): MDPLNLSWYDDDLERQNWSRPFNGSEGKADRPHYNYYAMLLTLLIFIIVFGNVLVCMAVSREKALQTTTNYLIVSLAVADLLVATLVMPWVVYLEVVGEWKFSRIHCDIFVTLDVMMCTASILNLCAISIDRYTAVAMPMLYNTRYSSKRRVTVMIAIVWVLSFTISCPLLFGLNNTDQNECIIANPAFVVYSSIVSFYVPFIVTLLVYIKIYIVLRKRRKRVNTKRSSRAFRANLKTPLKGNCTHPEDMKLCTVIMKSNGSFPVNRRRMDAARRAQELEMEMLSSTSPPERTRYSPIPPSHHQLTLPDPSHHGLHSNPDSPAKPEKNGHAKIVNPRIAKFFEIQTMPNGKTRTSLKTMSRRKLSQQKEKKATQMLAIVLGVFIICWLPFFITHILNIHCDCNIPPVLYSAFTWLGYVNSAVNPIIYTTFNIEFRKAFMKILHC
Procedure: as §1, §2, §3, §4, §5, §6

[1] = tested on: serotonin-induced contraction of caudal artery of the rat; test: Antagonistic activity on the effect of serotonin on the caudal artery of the rat; format: cell-based; details: 5 min; rat caudal artery strips; serotonin 40 ng/ml; 5 minutes after adding the drug; read-out: ED50 (minimal concentration which reduces the amplitude of the contractions by at least 50% of its normal value)
Procedure: Antagonistic activity on the effect of serotonin on the caudal artery of the rat.
Caudal arteries from the fasted male rats (210-235 g) were used in the test. Two helical strips having a length of 5-6 cm and a width of 2 mm were obtained from each artery and mounted vertically in a 100 ml organ bath containing an oxygenated Krebs-Henseleit solution. Submaximal contractions of the arterial strips were produced by adding single doses of serotonin (40 ng/ml) to the organ bath for 2 minutes with each time an interval of 10 minutes. The amplitude of the contractions was measured before and 5 minutes after adding the drug. After washing out, the agonist was added again three times in order to see whether the contraction was restored and normalized. […] The ED50 -values are the minimal concentrations of the concerned drugs which reduce the amplitude of the contractions by at least 50% of its normal value.

T1 sequence (P14842 whole entry): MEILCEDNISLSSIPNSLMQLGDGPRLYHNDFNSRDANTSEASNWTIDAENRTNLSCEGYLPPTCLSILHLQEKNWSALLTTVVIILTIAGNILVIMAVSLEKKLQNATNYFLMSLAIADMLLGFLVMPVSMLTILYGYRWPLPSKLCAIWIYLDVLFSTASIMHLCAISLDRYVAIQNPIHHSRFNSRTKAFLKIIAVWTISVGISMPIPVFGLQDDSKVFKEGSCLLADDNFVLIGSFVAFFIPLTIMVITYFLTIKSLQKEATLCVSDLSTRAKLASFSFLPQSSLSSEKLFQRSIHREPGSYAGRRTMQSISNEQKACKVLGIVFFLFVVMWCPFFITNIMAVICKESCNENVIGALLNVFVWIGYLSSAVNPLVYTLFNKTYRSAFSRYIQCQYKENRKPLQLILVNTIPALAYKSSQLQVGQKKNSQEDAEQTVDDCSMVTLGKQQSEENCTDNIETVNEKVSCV

Row | Structure (SMILES) | IC50 (5HT2 serotonin receptor) [nM] | IC50 (5HT1A serotonin receptor) [nM] | IC50 (5HT1B serotonin receptor) [nM] | IC50 (5HT3 serotonin receptor) [nM] | IC50 (histamine-H1 receptor) [nM] | IC50 (dopamine-D2 receptor) [nM] | IC50 [1] [nM]
1 | COc1cc(N)c(I)cc1C(=O)NC1(C)CCN(CCCOc2ccc(F)cc2)CC1 [Compound 1, 4-amino-N-[1-[3-(4-fluorophenoxy)propyl]-4-methyl-4-piperidinyl]-5-iodo-2-methoxybenzamide] | 0.603 | 457 | 8910 | 4170 | 6460 | 27.5 | 0.27
2 | COc1cc(N)c(Cl)cc1C(=O)NC1(C)CCN(CCCOc2ccc(F)cc2)CC1 [Compound 2, 4-amino-5-chloro-N-[1-[3-(4-fluorophenoxy)propyl]-4-methyl-4-piperidinyl]-2-methoxybenzamide] | 0.251 | 661 | 6610 | 1700 | 4570 | 29.5 | 0.15
3 | COc1cc(N)c(Br)cc1C(=O)NC1(C)CCN(CCCOc2ccc(F)cc2)CC1 [Compound 3, 4-amino-5-bromo-N-[1-[3-(4-fluorophenoxy)propyl]-4-methyl-4-piperidinyl]-2-methoxybenzamide] | 0.661 | 407 | 6610 | 1440 | 10000 | 47.9 | 
4 | COc1cc(N)c(Cl)cc1C(=O)NC1(C)CCN(CCCOc2ccc(F)cc2Br)CC1 [Compound 4, 4-amino-N-[1-[3-(2-bromo-4-fluorophenoxy)propyl]-4-methyl-4-piperidinyl]-5-chloro-2-methoxybenzamide] | 0.631 | 417 | 10000 | 191 | 2880 | 22.9 | 0.12
5 | COc1cc(N)ccc1C(=O)NC1(C)CCN(CCCOc2ccc(F)cc2)CC1 [Compound 5, 4-amino-N-[1-[3-(4-fluorophenoxy)propyl]-4-methyl-4-piperidinyl]-2-methoxybenzamide] | 0.178 | 2240 | > 10000 | > 10000 | 3720 | 85.1 | 0.213
6 | COc1cc(N=[N+]=[N-])c(I)cc1C(=O)NC1(C)CCN(CCCOc2ccc(F)cc2)CC1 [Compound 7, 4-azido-N-[1-[3-(4-fluorophenoxy)propyl]-4-methyl-4-piperidinyl]-5-iodo-2-methoxybenzamude hemihydrate] | 7.41 | 89.1 | 3240 | 10000 | 7940 | 66.1 | 
7 | COc1cc(N=[N+]=[N-])c(Br)cc1C(=O)NC1(C)CCN(CCCOc2ccc(F)cc2)CC1 [Compound 8, 4-azido-5-bromo-N-[1-[3-(4-fluorophenoxy)propyl]-4-methyl-4-piperidinyl]-2-methoxybenzamide] | 3.55 | 219 | 3310 | 8320 | 8510 | 63.1 | 

Source: patent publication US5498618A, “4-amino-N-(4-methyl-4-piperidinyl)-2-methoxybenzamides for treating smooth muscle contraction disorders” (Janssen Pharmaceutica N.V., priority 1993, dated 1996)
